Test results: ChEMBL document CHEMBL4476872, “Inhibitors of cellular metabolic processes” (2018)

target: S-adenosylmethionine synthase isoform type-2 (Homo sapiens, UniProt P31153); experiment: Inhibition of recombinant His6-tagged MAT2A (unknown origin) expressed in SF9 insect cells using L-Met as substrate preincubated for 60 mins followed by substrate and ATP addition and measured after 60 mins by spectrophotometric analysis
Sequence (P31153 whole entry, canonical isoform): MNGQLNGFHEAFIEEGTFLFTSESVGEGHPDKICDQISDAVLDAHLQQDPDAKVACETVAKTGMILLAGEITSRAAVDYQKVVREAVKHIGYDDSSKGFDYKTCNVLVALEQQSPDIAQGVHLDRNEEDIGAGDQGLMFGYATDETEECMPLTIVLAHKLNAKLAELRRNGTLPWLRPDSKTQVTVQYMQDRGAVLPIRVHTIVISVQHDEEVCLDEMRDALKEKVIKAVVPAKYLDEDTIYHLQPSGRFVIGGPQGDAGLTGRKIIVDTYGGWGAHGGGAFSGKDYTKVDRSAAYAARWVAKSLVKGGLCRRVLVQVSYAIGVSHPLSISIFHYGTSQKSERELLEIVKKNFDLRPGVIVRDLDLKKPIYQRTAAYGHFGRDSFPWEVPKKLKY

SMILES	IC50
Cc1[nH]c2c(N3CCCCC3)c(-c3ccccc3)nn2c(=O)c1-c1ccccc1	100 to 1000 nM
COC(=O)Cc1nc2ccc(-c3c(C)[nH]c4c(-c5ccccc5)c(-c5ccccc5)nn4c3=O)cc2s1	< 100 nM
Cc1[nH]c2c(-c3ccccc3)c(-c3ccccc3)nn2c(=O)c1-c1ccc(OCC(=O)N(C)C)cc1	100 to 1000 nM
COc1ccc(-c2c(CC#N)[nH]c3c(-c4ccccc4)c(-c4ccccc4)nn3c2=O)cc1	100 to 1000 nM
